Values quoted from earlier work as cited in patent US10034825B2, “Luminate eye gel” (Jan Marini Skin Research, priority 2015, dated 2018).

Details: after penetration through the skin to the living cells

Structure (SMILES): CC(=O)Oc1c(C)c(C)c2c(c1C)CCC(C)(CCC[C@H](C)CCC[C@H](C)CCCC(C)C)O2 (stereo partly shown) [Tocopheryl acetate]
- fraction converted to free tocopherol: about 5%
